Converted amounts (≈) assume the structure as drawn. “And” between values parts separate entries of the source, which are not always exact repeats. Identical values can stand only once. Like-named read-outs stand apart in the source and are kept apart here. Ends that are not written are not given here.
Tests used:
MRSA isolate 1096 = assay: microbe, parasite or virus in culture; type: cell-based, Staphylococcus aureus
Procedure: (§1) The MIC and MBC of the purified peptides from SPR-20 were determined by broth microdilution assay following a standard guideline. S. aureus TISTR 517 and MRSA isolate 142, 1096, and 2468 as bacterial strains were cultured in MH agar at 37 °C for 18 h. […] The cells were then diluted to 5 × 10^6 CFU/mL using cation-adjusted Mueller Hinton broth (CAMHB). The diluted cell suspension (10 μL) was transferred to each well of a 96-well plate. The purified peptide in the total volume of 100 µL was added to each well to obtain the final concentrations between 0.5 and 64 µg/mL. The standard antibiotics (vancomycin and cefoxitin) (Sigma-Aldrich Co., St. Louis, MO, USA) and antibiotic-free samples were the positive and negative controls, respectively. CAMHB without tested bacteria was used as a blank. The 96-well plates were incubated at 37 °C for 24 h, and the experiment was performed in triplicate for each strain. […] Subsequently, 100 µL of each dilution was spread on MH agar and then incubated at 37 °C for 24 h.

MRSA isolate 142 = assay: microbe, parasite or virus in culture; type: cell-based, Staphylococcus aureus
Procedure: as §1

MRSA isolate 2468 [1] = assay: microbe, parasite or virus in culture; type: cell-based, Staphylococcus aureus
Procedure: as §1

[2] = tested on: S. aureus TISTR 517 and MRSA strains; assay: microbe, parasite or virus in culture; type: cell-based, Staphylococcus aureus; settings: Staphylococcus aureus
Procedure: as §1

S. aureus TISTR 517 [3] = assay: microbe, parasite or virus in culture; type: cell-based, Staphylococcus aureus
Procedure: as §1

MRSA isolate 2468 [4] = assay: microbe, parasite or virus in culture; type: cell-based, Staphylococcus aureus; settings: Staphylococcus aureus, 18 h, read-out: Corrected Zone of Inhibition
Procedure: (§2) The antimicrobial activity was measured by an agar well diffusion test with some modified methods. In brief, single colonies of the tested strains were suspended in 0.85% NaCl, and then the OD at 625 nm was adjusted to 0.1. The cell suspensions were spread on MH agar, and the tested samples (100 μL) were introduced into each well before incubation at 37 °C for 24 h. Each experiment was performed in three independent replicates, and the inhibition zone was measured and expressed as mean ± SD.
(§3) The agar well diffusion test was performed in triplicate for potency determination, using S. aureus TISTR 517 and MRSA isolate 2468 as the tested bacteria. […] The remaining standard and sample solutions were transferred to the other 3 wells. The plates were incubated at 37 °C for 18 h.

S. aureus TISTR 517 [5] = assay: microbe, parasite or virus in culture; type: cell-based, Staphylococcus aureus; settings: Staphylococcus aureus, TISTR517, 18 h, read-out: Corrected Zone of Inhibition
Procedure: as §2, §3

[6] = cited from earlier work
Procedure: With the highest activity, P1 was selected for further study on its stability and mechanism of action. P1 was thermostable as it maintained nearly all activity after exposure to 100 °C or autoclave conditions. The short-chain peptide with substantial β-strand and disordered structures was an important characteristic of P1. This peptide might be refolded to active conformation after heat treatment that conferred good thermal stability. Similarly, acidocin LCHV (11 residues) produced by Lactobacillus acidophilus n.v. Er 317/402 Narine was stable at 130 °C for 90 min [27]. […] The enzymatic stability of P1 was caused by the absence of aromatic amino acids, which are the specific cleavage sites of proteinase K and α-chymotrypsin. The presence of one lysine at the core sequence of P1 might lessen the sensitivity of trypsin [29].

[7] = Staphylococcus aureus, broth microdilution, CAMHB, 37 °C, 24 h, triplicate, read-out: MIC
[8] = Staphylococcus aureus, TISTR517, 24 h

Work on `CO[C@@]1(NC(=O)Cc2cccs2)C(=O)N2C(C(=O)O)=C(COC(N)=O)CS[C@@H]21` [Cefoxitin, cefoxitin, reference compound] yielded an MIC (MRSA isolate 1096; [7]) greater than 64 µg/mL, an MIC (MRSA isolate 142; [7]) greater than 64 µg/mL and an MIC (MRSA isolate 2468 [1]; [7]) greater than 64 µg/mL. The MIC ([2]; MRSA strains only, read-out: MIC) was greater than 64 µg/mL, the MIC (S. aureus TISTR 517 [3]; Staphylococcus aureus, TISTR517, broth microdilution, CAMHB, 37 °C, 24 h, triplicate, read-out: MIC) was 2 µg/mL (≈ 4.68 µM) and the MBC (S. aureus TISTR 517 [3]; Staphylococcus aureus, TISTR517, dilutions spread on MH agar, 37 °C, 24 h, no colony, read-out: MBC) was 2 µg/mL (≈ 4.68 µM). For the same compound, the MIC (S. aureus TISTR 517 [3]; broth microdilution, CAMHB, 37 °C, 24 h, triplicate) was 2 µg/mL (≈ 4.68 µM).
With `CN[C@H](CC(C)C)C(=O)N[C@H]1C(=O)N[C@@H](CC(N)=O)C(=O)N[C@H]2C(=O)N[C@H]3C(=O)N[C@H](C(=O)N[C@H](C(=O)O)c4cc(O)cc(O)c4-c4cc3ccc4O)[C@H](O)c3ccc(c(Cl)c3)Oc3cc2cc(c3O[C@@H]2O[C@H](CO)[C@@H](O)[C@H](O)[C@H]2O[C@H]2C[C@](C)(N)[C@H](O)[C@H](C)O2)Oc2ccc(cc2Cl)[C@H]1O` [Vancomycin, vancomycin] the MBC (MRSA isolate 1096; Staphylococcus aureus, 24 h) was 2 µg/mL (≈ 1.38 µM), the MIC (MRSA isolate 1096; Staphylococcus aureus, 24 h) was 2 µg/mL (≈ 1.38 µM) and the MBC (MRSA isolate 142; Staphylococcus aureus, 24 h) was 2 µg/mL (≈ 1.38 µM). It also gave an MIC (MRSA isolate 142; Staphylococcus aureus, 24 h) of 2 µg/mL (≈ 1.38 µM), an MBC (MRSA isolate 2468 [1]; Staphylococcus aureus, 24 h) of 2 µg/mL (≈ 1.38 µM) and an MIC (MRSA isolate 2468 [1]; Staphylococcus aureus, 24 h) of 2 µg/mL (≈ 1.38 µM). For the same compound, the MIC [2] was 2 µg/mL and 1.38 µM, the MBC (S. aureus TISTR 517 [3]; [8]) was 2 µg/mL (≈ 1.38 µM) and the MIC (S. aureus TISTR 517 [3]; [8]) was 2 µg/mL (≈ 1.38 µM). The zone of inhibition at 50 µg/mL (MRSA isolate 2468 [4]) was 20.1 ± 0.29 mm, the zone of inhibition at 75 µg/mL (MRSA isolate 2468 [4]) was 21.2 ± 0.76 mm and the zone of inhibition at 100 µg/mL (MRSA isolate 2468 [4]) was 22 ± 0.57 mm. For the same compound, the zone of inhibition at 125 µg/mL (MRSA isolate 2468 [4]) was 22.7 ± 0.61 mm, the zone of inhibition at 150 µg/mL (MRSA isolate 2468 [4]) was 23.36 ± 0.21 mm and the zone of inhibition at 50 µg/mL (S. aureus TISTR 517 [5]) was 18.8 ± 0.61 mm. For the same compound, the zone of inhibition at 75 µg/mL (S. aureus TISTR 517 [5]) was 19.5 ± 0.52 mm, the zone of inhibition at 100 µg/mL (S. aureus TISTR 517 [5]) was 20.3 ± 0.41 mm and the zone of inhibition at 125 µg/mL (S. aureus TISTR 517 [5]) was 21.1 ± 0.41 mm. It also gave a zone of inhibition at 150 µg/mL (S. aureus TISTR 517 [5]) of 21.3 ± 0.36 mm.
For “NVGVLNPPPLV [Acidocin LCHV, antimicrobial peptide produced by Lactobacillus acidophilus n.v; Er 317/402 Narine]”, the thermal stability ([6]; 130 °C for 90 min) is given as “stable” and the “effect of trypsin, pepsin, and proteinase K on activity” value ([6]; according to a previous study) is given as “decreased the activity”.
Compound VVLNLLVKVLKYGK [Peptide P3] has an MBC (MRSA isolate 1096; isolate 1096, 24 h) of 8 µg/mL, an MIC (MRSA isolate 1096; isolate 1096, 24 h) of 4 µg/mL and an MBC (MRSA isolate 142; isolate 142, 24 h) of 8 µg/mL. For the same compound, the MIC (MRSA isolate 142; isolate 142, 24 h) was 4 µg/mL, the MBC (MRSA isolate 2468 [1]; isolate 2468, 24 h) was 8 µg/mL and the MIC (MRSA isolate 2468 [1]; isolate 2468, 24 h) was 4 µg/mL. The MBC (S. aureus TISTR 517 [3]; TISTR 517, 24 h) was 4 µg/mL and the MIC (S. aureus TISTR 517 [3]; TISTR 517, 24 h) was 4 µg/mL.
VVLNLVVKLLKYAK [Peptide P5] gave an MBC (MRSA isolate 1096; isolate 1096, 24 h) of 32 µg/mL, an MIC (MRSA isolate 1096; isolate 1096, 24 h) of 32 µg/mL and an MBC (MRSA isolate 142; isolate 142, 24 h) of 32 µg/mL. The MIC (MRSA isolate 142; isolate 142, 24 h) was 32 µg/mL, the MBC (MRSA isolate 2468 [1]; isolate 2468, 24 h) was 32 µg/mL and the MIC (MRSA isolate 2468 [1]; isolate 2468, 24 h) was 32 µg/mL. For the same compound, the MBC (S. aureus TISTR 517 [3]; TISTR 517, 24 h) was 32 µg/mL and the MIC (S. aureus TISTR 517 [3]; TISTR 517, 24 h) was 32 µg/mL.
VVMNLLVKVLKYVV [Peptide P2] showed an MBC (MRSA isolate 1096; isolate 1096, 24 h) of 64 µg/mL, an MIC (MRSA isolate 1096; isolate 1096, 24 h) of 8 µg/mL and an MBC (MRSA isolate 142; isolate 142, 24 h) of 64 µg/mL. The MIC (MRSA isolate 142; isolate 142, 24 h) was 8 µg/mL, the MBC (MRSA isolate 2468 [1]; isolate 2468, 24 h) was 64 µg/mL and the MIC (MRSA isolate 2468 [1]; isolate 2468, 24 h) was 8 µg/mL. For the same compound, the MBC (S. aureus TISTR 517 [3]; TISTR 517, 24 h) was 16 µg/mL and the MIC (S. aureus TISTR 517 [3]; TISTR 517, 24 h) was 8 µg/mL.
VVVNLLVKVLKYAK [Peptide P4] gave an MBC (MRSA isolate 1096; isolate 1096, 24 h) of 16 µg/mL, an MIC (MRSA isolate 1096; isolate 1096, 24 h) of 8 µg/mL and an MBC (MRSA isolate 142; isolate 142, 24 h) of 16 µg/mL. It also gave an MIC (MRSA isolate 142; isolate 142, 24 h) of 8 µg/mL, an MBC (MRSA isolate 2468 [1]; isolate 2468, 24 h) of 16 µg/mL and an MIC (MRSA isolate 2468 [1]; isolate 2468, 24 h) of 8 µg/mL. It also gave an MBC (S. aureus TISTR 517 [3]; TISTR 517, 24 h) of 8 µg/mL and an MIC (S. aureus TISTR 517 [3]; TISTR 517, 24 h) of 8 µg/mL.
For “XVXVVVKVLKYLX [Brevilaterin V, antimicrobial peptide from Brevibacillus laterosporus S62-9]”, the “initial activity retained after heating” value ([6]; 100 °C for 2 h) is listed as 99% and the “remaining activity with pepsin, trypsin, and proteinase K” value [6] is listed as “more than 97%”.
